Data taken from US10183943B2, “Heterocyclic compounds and their use in preventing or treating bacterial infections” (MUTABILIS, priority 2015, dated 2019).

Experiments:
Assay type in all cases: cell-based
[1] = system: E. coli 131119 (TEM-1, OXA-48); experiment: MIC of ceftazidime (CAZ) in combination with compounds at 4 μg/mL, broth microdilution; conditions: Escherichia coli; strain 131119; CAZ alone, no compound
Method: (§1) Method 2: MIC of Compounds and Synergy with Ceftazidime Against Bacterial Isolates (Table 2 and 3)
(§2) Compounds of the present invention were assessed against genotyped bacterial strains alone or in combination with the β-lactam ceftazidime (CAZ). In the assays, MICs of said compounds, or of ceftazidime at fixed concentrations of said compounds were determined by the broth microdilution method according to the Clinical Laboratory Standards Institute (CLSI-M7-A7). Briefly, compounds alone according to the invention were prepared in DMSO and spotted (2 μL each) on sterile polystyrene plates (Corning, 3788). Compounds and ceftazidime dilutions were prepared in DMSO and spotted (1 μL each) on sterile polystyrene plates (Corning, 3788). Log phase bacterial suspensions were adjusted to a final density of 5×10^5 cfu/mL in cation-adjusted Mueller-Hinton broth (Becton-Dickinson) and added to each well (98 μL). Microplates were incubated for 16-20 h at 35° C. in ambient air. The MIC of the compounds was defined as the lowest concentration of said compounds that prevented bacterial growth as read by visual inspection. The MIC of ceftazidime at each compound concentration was defined as the lowest concentration of ceftazidime that prevented bacterial growth as read by visual inspection.

[2] = system: E. cloacae UFR85 (TEM-1, CTX-M-15, AmpC); experiment: as above; conditions: Enterobacter cloacae; strain UFR85; CAZ alone, no compound
Method: as §1, §2

[3] = system: E. coli UFR41 (TEM-1, CTX-M-15, CMY-2, OXA-1, NDM-4); experiment: as above; conditions: Escherichia coli, read-out: MIC of CAZ
Method: as §1, §2

[4] = system: K. pneumoniae UFR39 (CTX-M-15, NDM-1); experiment: as above; conditions: Klebsiella pneumoniae; strain UFR39; CAZ alone, no compound
Method: as §1, §2

[5] = system: E. coli UFR18 (CTX-M-15, OXA-204); experiment: as above; conditions: Escherichia coli, read-out: MIC of CAZ
Method: as §1, §2

[6] = system: K. oxytoca UFR21 (TEM-1, CTX-M-15, OXA-48); experiment: as above; conditions: Klebsiella oxytoca; strain UFR21; CAZ alone, no compound
Method: as §1, §2

[7] = system: E. coli UFR74 (SHV-1, DHA-1); experiment: as above; conditions: Escherichia coli; strain UFR74; CAZ alone, no compound
Method: as §1, §2

[8] = system: E. coli UFR32 (TEM-1, VEB-1, OXA-10); experiment: as above; conditions: Escherichia coli, read-out: MIC of CAZ
Method: as §1, §2

[9] = system: K. pneumoniae BAA-1898 (TEM-1, SHV-11, SHV-12, KPC-2); experiment: as above; conditions: Klebsiella pneumoniae, BAA1898; strain BAA-1898; CAZ alone, no compound
Method: as §1, §2

[10] = system: E. cloacae UFR51 (SHV-12, IMP-8); experiment: as above; conditions: Enterobacter cloacae, read-out: MIC of CAZ
Method: as §1, §2

[11] = system: K. pneumoniae 160143 (TEM-1, SHV-1, CTX-M-15, KPC-2, OXA-1); experiment: as above; conditions: Klebsiella pneumoniae; strain 160143; CAZ alone, no compound
Method: as §1, §2

[12] = system: E. coli UFR61O (TEM-1, KPC-2); experiment: as above; conditions: Escherichia coli; strain UFR61O; CAZ alone, no compound
Method: as §1, §2

[13] = system: K. pneumoniae UFR24 (TEM-1, SHV-2, SHV-11, OXA-1, OXA-48, OXA-47); experiment: as above; conditions: Klebsiella pneumoniae, read-out: MIC of CAZ
Method: as §1, §2

E. cloacae P99 (AmpC) = experiment: as above; conditions: Enterobacter cloacae; strain P99; CAZ alone, no compound
Method: as §1, §2

[14] = system: P. aeruginosa CIP107051 (TEM-24); experiment: as above; conditions: Pseudomonas aeruginosa; strain CIP107051; CAZ alone, no compound
Method: as §1, §2

[15] = system: K. pneumoniae 6299 (TEM-1, SHV-11, OXA-163); experiment: as above; conditions: Klebsiella pneumoniae; strain 6299; CAZ alone, no compound
Method: as §1, §2

[16] = system: K. pneumoniae 200047 (TEM-1, SHV-32, CTX-M-15, OXA-1); experiment: as above; conditions: Klebsiella pneumoniae; strain 200047; CAZ alone, no compound
Method: as §1, §2

[17] = system: E. cloacae 260508 (TEM-1, CTX-M-15); experiment: as above; conditions: Enterobacter cloacae; strain 260508; CAZ alone, no compound
Method: as §1, §2

[18] = system: K. pneumoniae UFR77 (CMY-2); experiment: as above; conditions: Klebsiella pneumoniae; strain UFR77; CAZ alone, no compound
Method: as §1, §2

E. coli RGN238 (OXA-1) = experiment: as above; conditions: Escherichia coli; strain RGN238; CAZ alone, no compound
Method: as §1, §2

[19] = system: E. cloacae UFR70 (TEM-1, CTX-M-15, CMY-2, OXA-1, Porin loss); experiment: as above; conditions: Enterobacter cloacae, read-out: MIC of CAZ
Method: as §1, §2

[20] = system: K. pneumoniae UFR68 (TEM-1, SHV-11, CTX-M-15, KPC-3); experiment: microbe, parasite or virus in culture; conditions: Klebsiella pneumoniae, read-out: MIC of CAZ
Method: as §1, §2

[21] = system: E. coli 190317 (TEM-1, SHV-12, CTX-M-15, OXA-1); experiment: microbe, parasite or virus in culture; conditions: Escherichia coli; strain 190317; CAZ alone, no compound
Method: as §1, §2

With `CC(C)(O/N=C(\C(=O)N[C@@H]1C(=O)N2C(C(=O)[O-])=C(C[n+]3ccccc3)CS[C@H]12)c1csc(N)n1)C(=O)O` [ceftazidime] the MIC [1] was 0.5 µg/mL, the MIC [2] was 128 µg/mL and the MIC [3] was over 128 µg/mL. It also gave an MIC [4] of over 1020 µg/mL, an MIC [5] of over 128 µg/mL and an MIC [6] of 128 µg/mL. For the same molecule, the MIC [7] was 64 µg/mL, the MIC [8] was over 128 µg/mL and the MIC [9] was 256 µg/mL. The MIC [10] was over 128 µg/mL, the MIC [11] was 128 µg/mL and the MIC [12] was 128 µg/mL. It also gave an MIC [13] of over 128 µg/mL, an MIC (E. cloacae P99 (AmpC)) of 128 µg/mL and an MIC [14] of 256 µg/mL. For the same molecule, the MIC [15] was 256 µg/mL, the MIC [16] was 128 µg/mL and the MIC [17] was 128 µg/mL. For the same molecule, the MIC [18] was 64 µg/mL, the MIC (E. coli RGN238 (OXA-1)) was 0.5 µg/mL and the MIC [19] was over 128 µg/mL. The MIC [20] was over 128 µg/mL and the MIC [21] was 128 µg/mL.
